Experimental data as given in PMC10026764, “Overcoming the imatinib-resistant BCR-ABL mutants with new ureidobenzothiazole chemotypes endowed with potent and broad-spectrum anticancer activity” (Journal of Enzyme Inhibition and Medicinal Chemistry, 2023).
“And” between values parts separate entries of the source, which are not always exact repeats. Equal entries are not always repeated. Where two headings read alike, the source gives them in different places.

Columns and labels:
NCI-H460 = test: cells; type: cell-based; details: for CC50 / TGI: NCI-H460, NSCL cancer; for CC50: read-out: LC50 (the source's name)
RXF 393 = test: NCI-60 five-dose SRB assay; type: cell-based; details: Homo sapiens; RXF 393, renal cancer
MOLT-4 = test: NCI-60 five-dose SRB assay; type: cell-based, human; details: MOLT-4, leukaemia; for GI50 / CC50: Homo sapiens; for CC50: read-out: LC50 (the source's name)
MDA-MB-231 = test: NCI-60 five-dose SRB assay; type: cell-based; details: Homo sapiens; MDA-MB-231, breast cancer
SNB-19 = test: NCI-60 five-dose SRB assay; type: cell-based; details: Homo sapiens; SNB-19, CNS cancer
K-562 = test: NCI-60 five-dose SRB assay; type: cell-based, human; details: K-562, leukaemia
NCI/ADR-RES = test: NCI-60 five-dose SRB assay; type: cell-based; details: Homo sapiens, ovarian cancer
NCI-60 cell lines = test: NCI-60 single dose SRB assay (panel); type: cell-based; details: single dose 10 μM
From the text: To gain further insights about the anticancer profile of this new ureidobenzothiazole chemotypes, the structures of all final compounds were submitted to the National Cancer Institute (NCI, Developmental Therapeutics Program, Bethesda, MD, USA). Based on NCI selection criteria, compounds 2b (AK-HW-90), 2e, and 2f were chosen for broad screening against a library of 60 human cancer cell lines, representing nine types of blood and solid cancers. Employing the highly sensitive sulforhodamine B (SRB) assay, compounds 2b, 2e, and 2f were tested initially at a single dose of 10 μM, and their detailed activities on the percentages growth of the NCI-60 cell lines were illustrated in Figure 5, and compared with that observed for the lead benzothiazole AKE-5l.

HCT-15 = test: NCI-60 five-dose SRB assay; type: cell-based, human; details: HCT-15, colon cancer; for GI50 / CC50: Homo sapiens; for CC50: read-out: LC50 (the source's name)
NCI-H23 = test: NCI-60 five-dose SRB assay; type: cell-based; details: Homo sapiens; NCI-H23, non-small cell lung cancer
MALME-3M = test: NCI-60 five-dose SRB assay; type: cell-based; details: Homo sapiens, melanoma
leukaemia K-562 cells = test: MTT antiproliferative assay; details: for GI50: Homo sapiens, K562, 72 h, read-out: GI50 K-562; for SI: selectivity index (GI50 (L132)/GI50 (K562)): MTT, 72 h
From the text: (§1) These cellular outcomes define the impact of BCR-ABL inhibition on the proliferation of K-562 cells.

NCI 60-cell line panel = test: cells; type: cell-based
OVCAR-5 = test: NCI-60 five-dose SRB assay; type: cell-based, human; details: OVCAR-5, ovarian cancer; for GI50 / LC50 (50% net cell kill): Homo sapiens
OVCAR-8 = test: NCI-60 five-dose SRB assay; type: cell-based; details: Homo sapiens; OVCAR-8, ovarian cancer
HT29 = test: NCI-60 five-dose SRB assay; type: cell-based, human; details: HT29, colon cancer; for GI50 / CC50: Homo sapiens, HT-29; for CC50: read-out: LC50 (the source's name)
SF-539 = test: NCI-60 five-dose SRB assay; type: cell-based; details: Homo sapiens; SF-539, CNS cancer
L132 normal cell = test: MTT antiproliferative assay; details: Homo sapiens, L132, 72 h, read-out: GI50 L132
From the text: as §1

NCI-H322M = test: NCI-60 five-dose SRB assay; type: cell-based, human; details: for CC50 / GI50: Homo sapiens; for CC50 / TGI: NSCL cancer; for CC50: read-out: LC50 (the source's name); for GI50: non-small cell lung cancer
HS 578T = test: NCI-60 five-dose SRB assay; type: cell-based; details: Homo sapiens, breast cancer
SN12C = test: NCI-60 five-dose SRB assay; type: cell-based; details: Homo sapiens, renal cancer
U251 = test: cells; type: cell-based; details: U251, CNS cancer; for GI50 / CC50: Homo sapiens, U-251; for CC50: read-out: LC50 (the source's name)
SNB-75 = test: NCI-60 five-dose SRB assay; type: cell-based, human; details: SNB-75, CNS cancer; for GI50 / CC50: Homo sapiens; for CC50: read-out: LC50 (the source's name)
ACHN = test: NCI-60 five-dose SRB assay; type: cell-based, human; details: renal cancer; for GI50 / CC50: Homo sapiens; for CC50: read-out: LC50 (the source's name)
OVCAR-4 = test: NCI-60 five-dose SRB assay; type: cell-based; details: Homo sapiens; OVCAR-4, ovarian cancer
BT-549 = test: NCI-60 five-dose SRB assay; type: cell-based; details: Homo sapiens; BT-549, breast cancer
SK-MEL-2 = test: NCI-60 five-dose SRB assay; type: cell-based; details: Homo sapiens; SK-MEL-2, melanoma
BCR-ABL^T315I = target: T1, BCR-ABL^T315I (Homo sapiens, UniProt P00519, T315I); test: In vitro kinase screening (RBC), BCR-ABL^T315I; type: biochemical; details: 10-dose IC50 mode, 3-fold serial dilution, 10 μM ATP
T1 construct: purchased Reaction Biology Corporation (RBC, Malvern, PA, USA)

HOP-92 = test: NCI-60 five-dose SRB assay; type: cell-based; details: Homo sapiens; HOP-92, non-small cell lung cancer
LOX IMVI = test: NCI-60 five-dose SRB assay; type: cell-based; details: Homo sapiens, melanoma
SF-295 = test: NCI-60 five-dose SRB assay; type: cell-based; details: Homo sapiens; SF-295, CNS cancer
TK-10 = test: NCI-60 five-dose SRB assay; type: cell-based; details: Homo sapiens; TK-10, renal cancer
UACC-62 = test: NCI-60 five-dose SRB assay; type: cell-based; details: Homo sapiens; UACC-62, melanoma
[1] = Homo sapiens, NCI-H460, NCI-H460, non-small cell lung cancer
[2] = Homo sapiens, 60 cell, all tested melanoma cell lines, read-out: GI50
[3] = Homo sapiens, COLO205, HCC-2998, HCT-116 and HCT-15 colon cancer cells, read-out: GI50

Q: What does the source list for COc1ccccc1-c1ccc2nc(NC(=O)Nc3cc(C(F)(F)F)cc(C(F)(F)F)c3)sc2c1 [Compound 2e]?
A: GI50 (NCI-H460; [1]): 2260 nM; CC50 (NCI-H460; Homo sapiens): 23500 nM; TGI (NCI-H460): 6120 nM; GI50 (RXF 393): 2190 nM; GI50 (MOLT-4): 1590 nM; CC50 (MOLT-4): 51300 nM; TGI (MOLT-4): 7240 nM; GI50 (MDA-MB-231): 1950 nM; GI50 (SNB-19): 2440 nM; GI50 (K-562; Homo sapiens, K562): 1540 nM; CC50 (K-562; Homo sapiens, K562, read-out: LC50 (the source's name)): 43900 nM; TGI (K-562): 8950 nM; GI50 (NCI/ADR-RES): 2370 nM; number of cancer cells with lethal/cytotoxic effects (minus % growth values) (NCI-60 cell lines): 21 cancer cells; TGI (HCT-15): 10600 nM; GI50 (HCT-15): 2550 nM; CC50 (HCT-15): 34600 nM; GI50 (NCI-H23): 2020 nM; GI50 (MALME-3M): 1810 nM; GI50 (leukaemia K-562 cells): 13900 nM; SI: selectivity index (GI50 (L132)/GI50 (K562)) (leukaemia K-562 cells): 2.5; GI50 (NCI 60-cell line panel; [2]): 1540 to 2510 nM; GI50 (NCI 60-cell line panel; [3]): 1070 to 2650 nM; GI50 (NCI 60-cell line panel; all examined cell lines): one-digit micromolar; GI50 (OVCAR-5): 2540 nM; LC50 (50% net cell kill) (OVCAR-5): 32700 nM; TGI (OVCAR-5): 9660 nM; GI50 (OVCAR-8): 3040 nM; TGI (HT29): 9210 nM; GI50 (HT29): 2150 nM; CC50 (HT29): 33000 nM; GI50 (SF-539): 1990 nM; GI50 (L132 normal cell): 35000 nM; CC50 (NCI-H322M): 37000 nM; GI50 (NCI-H322M): 2780 nM; TGI (NCI-H322M): 9060 nM; GI50 (HS 578T): 2350 nM; GI50 (SN12C): 1700 nM; GI50 (U251): 2310 nM; CC50 (U251): 34400 nM; TGI (U251): 10300 nM; GI50 (SNB-75): 2250 nM; CC50 (SNB-75): 45300 nM; TGI (SNB-75): 11800 nM; GI50 (ACHN): 2140 nM; CC50 (ACHN): 28200 nM; TGI (ACHN): 7710 nM; GI50 (OVCAR-4): 2120 nM; GI50 (BT-549): 1620 nM; GI50 (SK-MEL-2): 2090 nM; IC50 (BCR-ABL^T315I): 9560 nM; GI50 (HOP-92): 1190 nM; GI50 (LOX IMVI): 1680 nM; GI50 (SF-295): 2640 nM; GI50 (TK-10): 4030 nM; GI50 (UACC-62): 1560 nM

Q: Cc1ccc(NC(=O)c2ccc(CN3CCN(C)CC3)cc2)cc1Nc1nccc(-c2cccnc2)n1 [Imatinib] was tested. Which GI50 (leukaemia K-562 cells) did it give?
A: 800 nM

Q: What about the GI50 (L132 normal cell) of the same compound?
A: > 10000 nM

Q: With CCN1CCN(c2ccc(NC(=O)Nc3nc4ccc(-c5ccccc5OC)cc4s3)cc2)CC1 [Compound 2b] as the compound, how does the GI50 (NCI-H460; [1]) read?
A: ~1760 nM

Q: And the CC50 (NCI-H460; Homo sapiens)?
A: 6010 nM

Q: And the TGI (NCI-H460)?
A: 3270 nM

Q: And the GI50 (NCI-H460; NCI-H460, non-small cell lung cancer)?
A: 1770 nM

Q: And the GI50 (RXF 393)?
A: 1700 nM

Q: And the GI50 (MOLT-4)?
A: 1800 nM

Q: What about the CC50 (MOLT-4) of the same compound?
A: 7450 nM

Q: What about the TGI (MOLT-4) of the same compound?
A: 3670 nM

Q: What about the GI50 (MDA-MB-231) of the same compound?
A: 1720 nM

Q: And the GI50 (SNB-19)?
A: 2030 nM

Q: What about the GI50 (K-562; Homo sapiens, K562) of the same compound?
A: 293 nM

Q: What about the TGI (K-562) of the same compound?
A: 1340 nM

Q: What about the GI50 (NCI/ADR-RES) of the same compound?
A: 1720 nM

Q: What about the “number of cancer cells with lethal/cytotoxic effects (minus % growth values)” value (NCI-60 cell lines) of the same compound?
A: 55 cancer cells

Q: And the TGI (HCT-15)?
A: 2470 nM

Q: And the GI50 (HCT-15)?
A: 1200 nM

Q: What about the CC50 (HCT-15) of the same compound?
A: 5060 nM

Q: And the GI50 (NCI-H23)?
A: 1670 nM

Q: What about the GI50 (MALME-3M) of the same compound?
A: 1710 nM

Q: What about the GI50 (leukaemia K-562 cells) of the same compound?
A: 3390 nM

Q: And the “SI: selectivity index (GI50 (L132)/GI50 (K562))” value (leukaemia K-562 cells)?
A: 5.3

Q: What about the GI50 (NCI 60-cell line panel; Homo sapiens, 60 cell, all ovarian cancer cell lines, read-out: GI50) of the same compound?
A: < 2000 nM

Q: What about the GI50 (NCI 60-cell line panel; [2]) of the same compound?
A: 1540 to 2510 nM

Q: What about the LC50 (NCI 60-cell line panel; Homo sapiens, 60 cell, several cancer cells) of the same compound?
A: < 10000 nM

Q: What about the GI50 (NCI 60-cell line panel; [3]) of the same compound?
A: 1070 to 2650 nM

Q: What about the GI50 (NCI 60-cell line panel; all examined cell lines) of the same compound?
A: one-digit micromolar

Q: And the TGI (NCI 60-cell line panel; several cancer cells)?
A: < 5000 nM

Q: And the GI50 (OVCAR-5)?
A: 1800 nM

Q: What about the LC50 (50% net cell kill) (OVCAR-5) of the same compound?
A: 6330 nM

Q: And the TGI (OVCAR-5)?
A: 3370 nM

Q: And the GI50 (OVCAR-8)?
A: 1990 nM

Q: And the TGI (HT29)?
A: 2700 nM

Q: And the GI50 (HT29)?
A: 1310 nM

Q: And the CC50 (HT29)?
A: 5570 nM

Q: And the GI50 (SF-539)?
A: 1600 nM

Q: What about the GI50 (L132 normal cell) of the same compound?
A: 17900 nM

Q: What about the CC50 (NCI-H322M) of the same compound?
A: 5990 nM

Q: What about the GI50 (NCI-H322M) of the same compound?
A: 1530 nM

Q: And the TGI (NCI-H322M)?
A: 3030 nM

Q: What about the GI50 (HS 578T) of the same compound?
A: 1950 nM

Q: And the GI50 (SN12C)?
A: 1770 nM

Q: What about the GI50 (U251) of the same compound?
A: 1570 nM

Q: What about the CC50 (U251) of the same compound?
A: 5510 nM

Q: And the TGI (U251)?
A: 2940 nM

Q: And the GI50 (SNB-75)?
A: 1490 nM

Q: What about the CC50 (SNB-75) of the same compound?
A: 5460 nM

Q: What about the TGI (SNB-75) of the same compound?
A: 2860 nM

Q: What about the GI50 (ACHN) of the same compound?
A: 1740 nM

Q: And the CC50 (ACHN)?
A: 5580 nM

Q: And the TGI (ACHN)?
A: 3110 nM

Q: And the GI50 (OVCAR-4)?
A: 1680 nM

Q: What about the GI50 (BT-549) of the same compound?
A: 1880 nM

Q: And the GI50 (SK-MEL-2)?
A: 1940 nM

Q: And the IC50 (BCR-ABL^T315I)?
A: 0.65 nM and 0.651 nM

Q: And the GI50 (HOP-92)?
A: 1470 nM

Q: And the GI50 (LOX IMVI)?
A: 1700 nM

Q: What about the GI50 (SF-295) of the same compound?
A: 1680 nM

Q: And the GI50 (TK-10)?
A: 2120 nM

Q: And the GI50 (UACC-62)?
A: 1870 nM
